Patent publication US20040018623A1, “Medium for preparing dedifferentiated cells” (priority 1999, published 2004)

Legend:
isolated canine islets = experiment: Islet-cystic (duct epithelial) transformation / transdifferentiation of isolated islets; format: cell-based; details: for cystic transformation, % of control: at 72 hours, islets pre-incubated prior to embedding in collagen, control = DMEM/F12-CT group; for ductal transformation in suspension with soluble matrix protein: islets in suspension in DMEM/F12-CT supplemented with soluble protein (50 μg/ml)
[1] = biological target: integrins (on isolated canine islet cells) (dog); experiment: cell-based or functional assay

GRGDSP [reference compound]
cystic transformation, % of control (isolated canine islets): 57 % of control
islet cell transdifferentiation after prior incubation of freshly isolated islets with peptide (isolated canine islets; prior incubation of islets with the peptide): partially blocked

GRGESP [control peptide, reference compound]
influence on the transformation process (isolated canine islets; islets pre-incubated with peptide (400 μg/ml) prior to embedding in collagen): little influence

fibronectin
cystic transformation, % of control (isolated canine islets): 50 % of control
ductal transformation in suspension with soluble matrix protein (isolated canine islets): failed to undergo ductal transformation

laminin
cystic transformation, % of control (isolated canine islets): 50 % of control
ductal transformation in suspension with soluble matrix protein (isolated canine islets): failed to undergo ductal transformation

GRGDSP [RGD-motif containing GRGDSP peptide]
islet-cystic transformation at 72 hours, percent of the control DMEM/F12-CT group [1]: 57 % of control
